{"source": "paper PMC10141604", "about": "“Small-Molecule Inhibition of Androgen Receptor Dimerization as a Strategy against Prostate Cancer” (ACS Central Science, 2023)", "key": {"[1]": {"tested_on": "DHT-induced AR nuclear translocation in LNCaP cells", "experiment": "Nuclear and cytoplasmic fractionation, AR nuclear translocation", "assay_type": "cell-based", "settings": "10 μM, 10 nM DHT, 16 h", "quoted_text": "(§1) h incubation at room temperature, each membrane was further incubated with specific\n(§2) Lamin B1, #AF1408, Beyotime Biotechnology) and then the corresponding secondary antibody (HRP-conjugated Goat Anti-Rabbit IgG, # D110058, Sangon Biotech). The Image J program was performed for quantitative analysis of the immunoreactive bands.\nExtraction of Nuclear and Cytoplasmic Fractions\npresence of 10 nM DHT and incubated for 16 h. The NE-PER Nuclear and Cytoplasmic\nextraction of nuclear and cytoplasmic proteins according to manufacturer’s protocol."}, "[2]": {"biological_target": "FL-AR^F876L (Homo sapiens, UniProt P10275, F877L)", "sequence (P10275 whole entry F877L)": "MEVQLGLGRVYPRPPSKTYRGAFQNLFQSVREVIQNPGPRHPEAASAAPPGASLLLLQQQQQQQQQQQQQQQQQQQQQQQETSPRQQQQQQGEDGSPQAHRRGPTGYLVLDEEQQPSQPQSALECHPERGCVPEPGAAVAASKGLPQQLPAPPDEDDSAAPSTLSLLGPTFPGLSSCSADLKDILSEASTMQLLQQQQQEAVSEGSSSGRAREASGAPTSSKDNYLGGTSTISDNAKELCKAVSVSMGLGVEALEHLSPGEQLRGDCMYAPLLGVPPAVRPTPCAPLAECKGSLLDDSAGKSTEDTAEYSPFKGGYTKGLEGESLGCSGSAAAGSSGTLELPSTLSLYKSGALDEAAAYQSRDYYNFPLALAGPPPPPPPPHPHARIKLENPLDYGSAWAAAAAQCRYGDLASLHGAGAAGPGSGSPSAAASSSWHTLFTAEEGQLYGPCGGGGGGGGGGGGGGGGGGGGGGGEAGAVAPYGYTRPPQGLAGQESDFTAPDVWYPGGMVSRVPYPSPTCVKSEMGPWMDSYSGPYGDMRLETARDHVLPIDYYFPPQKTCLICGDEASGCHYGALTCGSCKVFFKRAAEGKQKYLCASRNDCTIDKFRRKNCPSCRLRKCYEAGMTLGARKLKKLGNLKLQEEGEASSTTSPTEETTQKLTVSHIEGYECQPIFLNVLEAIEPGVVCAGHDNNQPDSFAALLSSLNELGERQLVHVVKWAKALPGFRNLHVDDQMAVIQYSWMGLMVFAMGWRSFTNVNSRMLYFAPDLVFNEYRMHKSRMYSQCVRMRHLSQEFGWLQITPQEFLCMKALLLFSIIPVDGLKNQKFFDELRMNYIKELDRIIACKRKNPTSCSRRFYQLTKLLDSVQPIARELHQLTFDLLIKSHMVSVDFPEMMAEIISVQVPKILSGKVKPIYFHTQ", "experiment": "Dual-luciferase reporter assay for FL-AR F876L in PC3 cells", "quoted_text": "(§3) Luciferase Reporter Assays for FL -ARF876L and FL-ARF876L/T877A\n(§4) constructed on the basis of the human full length wild type AR plasmid pCMV -hAR\n(§5) transfected with 70 ng/well of FL -AR plasmid together with 24 ng of ARR2PB -Luc, and 5 ng of Renilla. After 1 day incubation at 37 °C , the antagonistic models were employed"}, "[3]": {"tested_on": "endogenous PSA and AR in LNCaP cells", "experiment": "Western blot of PSA and AR in LNCaP cells", "assay_type": "cell-based", "settings": "10 nM DHT, 48 h", "quoted_text": "individually, and all in the presence of 10 nM DHT and incubated for 48 h. Then, the cells were harvested, followed by separating the cell lysate using 10% SDS-PAGE and electro-transfer to a polyvinylidene fluoride (PVDF) membrane (Bio -Rad). Blocking buffer (#P0023B, Beyotime Biotechnology) were used to block the membranes. After 0.5\nas §1, §2"}, "[4]": {"biological_target": "FL-AR^F876L/T877A (Homo sapiens, UniProt P10275, F877L/T878A)", "sequence (P10275 whole entry F877L/T878A)": "as the sequence (P10275 whole entry F877L) above, with T878A counted along it", "experiment": "Dual-luciferase reporter assay for FL-AR F876L/T877A in PC3 cells", "quoted_text": "as §3, §4, §5"}, "[5]": {"tested_on": "PC3", "experiment": "MTT cell viability assay, PC3", "assay_type": "cell-based", "settings": "72 h", "protocol": "3-(4,5-dimethythiazol-2-yl)-2,5-diphenyl-2-H-tetrazolium bromide (MTT) colorimetric assay was employed to investigate cell viability. Cells were seeded into 96-well plates with 2-5× 10^3 cells per well (5× 10^3 cells/well for LNCaP, 22RV1, NIH-3T3, GES-1, Chang, […]\nNCI-H1299, U2OS, U87) for 1 day incubation at 37 °C. Then, the cells were treated with various concentrations of compounds (22.86 nM - 50 μM) and incubated for 72 h. Then, 10 μl MTT (5 mg/ml) was added into each well and incubated for 4 h. Afterwards, 100 μl of triplex 10% SDS-0.1% HCl-phosophate-buffered saline (PBS) solutions was added into each well and incubated for overnight. The absorbance at 570 nm was measured (Eon, Bioteck, Winooski, VT). […]"}, "[6]": {"biological_target": "T1, AR LBP (Rattus norvegicus, UniProt P15207)", "T1 construct": "purchased Invitrogen Life Technologies A15880", "T1 sequence (P15207 651-882 limits assumed)": "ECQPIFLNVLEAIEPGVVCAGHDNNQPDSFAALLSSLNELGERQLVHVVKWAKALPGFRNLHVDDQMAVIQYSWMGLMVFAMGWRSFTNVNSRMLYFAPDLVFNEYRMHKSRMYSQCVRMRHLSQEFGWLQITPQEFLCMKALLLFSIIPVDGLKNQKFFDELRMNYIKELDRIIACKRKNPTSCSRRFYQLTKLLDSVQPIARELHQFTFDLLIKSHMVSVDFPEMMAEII", "experiment": "Competitive ligand-binding assay (PolarScreen AR competitor assay)", "protocol": "Competitive Ligand Binding Assay\nThe binding affinities of M17 and M17-B15 to the LBP of AR LBD were determined\nusing PolarScreen™ Androgen Receptor Competitor Assay Kit (#A15880, Invitrogen Life\nTechnologies) according to the user manual. […]"}, "[7]": {"biological_target": "T2, AR LBD dimerization (Homo sapiens, UniProt P10275)", "T2 construct": "LBD residues (613 -920); expressed in transfected cells; host or cells: HEK293T", "T2 sequence (P10275 613-920)": "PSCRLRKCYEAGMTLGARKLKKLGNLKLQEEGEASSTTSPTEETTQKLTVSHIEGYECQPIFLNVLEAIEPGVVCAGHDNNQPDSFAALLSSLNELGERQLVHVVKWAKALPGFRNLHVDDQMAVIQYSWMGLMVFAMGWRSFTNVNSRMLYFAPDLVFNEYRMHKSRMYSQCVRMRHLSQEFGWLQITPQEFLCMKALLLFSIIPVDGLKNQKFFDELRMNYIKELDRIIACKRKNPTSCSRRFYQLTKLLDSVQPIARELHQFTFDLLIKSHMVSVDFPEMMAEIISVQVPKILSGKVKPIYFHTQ", "experiment": "Acceptor photobleaching FRET microscopy assay in HEK293T cells", "assay_type": "cell-based", "settings": "10 μM, 10 nM DHT", "protocol": "(22.86 nM - 50 μM). After another 24 h incubation, the luciferase activities were determined by the Dual -Glo Luciferase system (#E1910, Promega) according to the […]\nAcceptor Photobleaching Fluorescence Resonance Energy Transfer (FRET) […]\nThe pCMV-cyan fluorescent protein (CFP, #D2623) and pCMV -yellow fluorescent protein (YFP, #D2716) plasmids were purchased from Beyotime Biotechnology. We constructed pCMV -YFP-(AR LBD) and pCMV -(AR LBD)-CFP by cloning human AR LBD residues (613 -920) into the fluorescent protein vector using seamless cloning kit (#C112-01, CloneExpress II, Vazyme). HEK293T (1× 10^5 cells/well) cells were cultured in 5% CSS DMEM media in 12-well plate with glass coverslips. The next day, ce lls were transfected with 400 ng pCMV -YFP-(AR LBD), 400 ng pCMV -(AR LBD) -CFP together with HG -Trans Gene TM transfection reagent (#TG-10012, Health & Gene™). Free YFP and CFP proteins were transfected together as control. […]\nThe FRET assay was then tested by Olympus FV1000 equipped with a UPlanSApo 60× /1.35 NA oil objective. CFP was detected using 405 nm excitation while YFP was excited using 515 nm at moderate laser power, and the emission was detected using a 480-495 nm bandpass emission filter and 535-565 nm bandpass emission filter, respectively.\nThe first pair of CFPbefore and YFPbefore was collected. […] The apparent FRET efficiency was calculated after background […]"}}}
{"smiles": "CC(=O)Cc1nsc(NC(=O)c2cc(-c3cccc(C(F)(F)F)c3)oc2C)n1", "note": "[Compound M17-B15]", "values": [{"measurement": "DHT-induced AR nuclear translocation", "setting": "[1]", "value": "inhibit"}, {"measurement": "IC50", "setting": "[2]", "value": 160, "unit": "nM"}, {"measurement": "AR levels (Western blot)", "setting": "[3]; LNCaP", "value": "does not affect"}, {"measurement": "endogenous PSA production (Western blot)", "setting": "[3]; LNCaP, 0.1, 1, 10 μM", "value": "remarkably inhibited"}, {"measurement": "IC50", "setting": "[4]", "value": 150, "unit": "nM"}, {"measurement": "inhibition on the cell viability of PC3", "setting": "[5]", "value": "does not show obvious inhibition"}, {"measurement": "binding to the conventional LBP", "setting": "[6]", "value": "does not target the LBP"}, {"measurement": "FRET efficiency (AR LBD dimerization)", "setting": "[7]", "value": "lower FRET efficiency"}]}
